This note sets out measurements from patent publication US20250312352A1, “GLP-1R MODULATING COMPOUNDS” (Gilead Sciences, Inc., priority 2021, published 2025).

pEC50: −log10 of the molar value.

T1 sequence (P43220 24-463): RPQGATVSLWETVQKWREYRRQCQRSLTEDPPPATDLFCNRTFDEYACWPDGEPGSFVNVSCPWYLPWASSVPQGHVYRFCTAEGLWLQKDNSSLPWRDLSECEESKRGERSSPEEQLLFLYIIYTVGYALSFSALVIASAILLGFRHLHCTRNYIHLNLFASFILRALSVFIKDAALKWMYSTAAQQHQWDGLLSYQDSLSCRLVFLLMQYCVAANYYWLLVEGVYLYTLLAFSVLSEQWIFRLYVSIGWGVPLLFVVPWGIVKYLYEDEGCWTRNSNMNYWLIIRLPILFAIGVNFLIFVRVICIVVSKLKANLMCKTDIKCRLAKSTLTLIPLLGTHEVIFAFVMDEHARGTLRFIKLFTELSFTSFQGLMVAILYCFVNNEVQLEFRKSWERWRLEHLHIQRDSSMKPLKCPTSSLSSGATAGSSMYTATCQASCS

The experiment has as its target T1, GLP-1R (Homo sapiens, UniProt P43220).
T1 construct: host or cells: CHO cells
Description: GLP-1R activation cAMP assay (Assay 1 or Assay 2). Type of experiment: cell-based. Particulars: cAMP increase in CHO cells stably expressing GLP-1R; compounds run on one of the two cAMP assays. How it is done:
GLP-1R ACTIVATION—cAMP Assay 1
GLP-1R activation by compounds of the present disclosure was quantified by measuring cAMP increase in CHO cells stably expressing GLP-1R (MultiSpan product #C1267-1a). The cells were harvested and plated in growth medium (DMEM/F-12 (Corning product #10-090-CV) supplemented with 10% FBS (HyClone product #SH30071-03), penicillin/streptomycin (Corning product #30-002CI) and 10 μg/ml puromycin (Gibco product #A11138-03)) at 1,000 cells/well in a 384-well plate (Greiner product #781080). The cells were then incubated overnight at 37° C., 5% CO2. The next day, the medium was removed and the cells were washed with DPBS (Corning product #21-031-CM) before adding the assay medium (HBSS, Corning product #21-023-CV) with 20 mM Hepes (Gibco product #15630-080) and 0.1% BSA (Rockland Immunochemicals product #BSA-1000)). Following the medium change, the cells were incubated for 1 hour at 37° C., 5% CO2. The tested GLP-1 compound was added to the cells in a 10-point dose response followed by a 30-minute incubation at 37° C., 5% CO2. cAMP concentration increase was then detected using Cisbio's cAMP Gs Dynamic Kit (product #62AM4PEC) according to the manufacturer's protocol. The response was plotted against the log of the agonist concentration and fitted to a sigmoidal equation to determine the EC50.
GLP-1R ACTIVATION—cAMP Assay 2
GLP-1R activation by small molecule agonists was quantified by measuring cAMP increase in CHO cells stably expressing GLP-1R (MultiSpan product #C1267-1a). 50 nL of agonists were pre-spotted in a 10-point dose response onto 384-well plate (Corning product #CL3826) using the Labcyte Echo System.
A general note: Cyclic AMP is a second messenger, typically raised through Gs and lowered through Gi signalling.
The compound `O=C(O)c1ccc2nc(Cc3cc(F)c(-c4cccc(OCc5cc6n(n5)CC5(CC5)C6)n4)cc3F)n(C[C@@H]3CCO3)c2c1` [Example 75, (S)-2-(4-(6-((4′,6′-dihydrospiro[cyclopropane-1,5′-pyrrolo[1,2-b]pyrazol]-2′-yl)methoxy)pyridin-2-yl)-2,5-difluorobenzyl)-1-(oxetan-2-ylmethyl)-1H-benzo[d]imidazole-6-carboxylic acid] had a pEC50 of 9.21. `COc1nnc(COc2cccc(-c3cc(F)c(Cc4nc5ccc(C(=O)O)cc5n4C[C@@H]4CCO4)cc3F)n2)s1` [Example 1, 2-[[2,5-difluoro-4-[6-[(5-methoxy-1,3,4-thiadiazol-2-yl)methoxy]-2-pyridyl]phenyl]methyl]-3-[[(2S)-oxetan-2-yl]methyl]benzimidazole-5-carboxylic acid]: the pEC50 was 9.57. The result for `O=C(O)c1ccc2nc(Cc3cc(F)c(-c4cccc(OCc5cnc(-c6cn(C7COC7)nn6)cc5F)n4)cc3F)n(C[C@@H]3CCO3)c2c1` [Example 236, 2-[[2,5-difluoro-4-[6-[[4-fluoro-6-[1-(oxetan-3-yl)triazol-4-yl]-3-pyridyl]methoxy]-2-pyridyl]phenyl]methyl]-3-[[(2S)-oxetan-2-yl]methyl]benzimidazole-5-carboxylic acid] reads 9.66; that for “(S)-1-(oxetan-2-ylmethyl)-2-(2,3,6-trifluoro-4-(6-((4-(trifluoromethyl)thiazol-2-yl)methoxy)pyridin-2-yl)benzyl)-1H-benzo[d]imidazole-6-carboxylic acid [Example 376]”, 9.82; that for `COc1nnc(COc2nc(-c3ccc(Cc4nc5c(F)cc(C(=O)O)cc5n4[C@@H]4COCC4(C)C)c(F)c3)ccc2F)s1` [Example 429, (S)-1-(4,4-dimethyltetrahydrofuran-3-yl)-4-fluoro-2-(2-fluoro-4-(5-fluoro-6-((5-methoxy-1,3,4-thiadiazol-2-yl)methoxy)pyridin-2-yl)benzyl)-1H-benzo[d]imidazole-6-carboxylic acid], 10.62. In the case of `COCCn1c(Cc2cc(F)c(-c3cccc(OCc4cnn(-c5ccccc5)c4)n3)cc2F)nc2ccc(C(=O)O)cc21` [Example 121, 2-(2,5-difluoro-4-(6-((1-phenyl-1H-pyrazol-4-yl)methoxy)pyridin-2-yl)benzyl)-1-(2-methoxyethyl)-1H-benzo[d]imidazole-6-carboxylic acid], the negative logarithm of the EC50 (pEC50) is 6.14. For the compound `O=C(O)c1ccc2nc(Cc3cc(F)c(-c4cccc(OCc5nnc(OCC(F)(F)F)s5)n4)cc3F)n(C[C@@H]3CCO3)c2c1` [Example 350, (S)-2-(2,5-difluoro-4-(6-((5-(2,2,2-trifluoroethoxy)-1,3,4-thiadiazol-2-yl)methoxy)pyridin-2-yl)benzyl)-1-(oxetan-2-ylmethyl)-1H-benzo[d]imidazole-6-carboxylic acid], the pEC50 was 9.68. As to `Cc1nnc(COc2cccc(-c3cc(F)c(Cc4nc5ccc(C(=O)O)cc5n4C[C@@H]4CCO4)cc3F)n2)s1` [Example 308, (S)-2-(2,5-difluoro-4-(6-((5-methyl-1,3,4-thiadiazol-2-yl)methoxy)pyridin-2-yl)benzyl)-1-(oxetan-2-ylmethyl)-1H-benzo[d]imidazole-6-carboxylic acid], the pEC50 is 9.17. The result for `N#CC1(NC(=O)c2cc(Cl)c(COc3cccc(-c4cc(F)c(Cc5nc6c(F)cc(C(=O)O)cc6n5C[C@@H]5CCO5)cc4F)n3)cn2)CC1` [Example 185, (S)-2-(4-(6-((4-chloro-6-((1-cyanocyclopropyl)carbamoyl)pyridin-3-yl)methoxy)pyridin-2-yl)-2,5-difluorobenzyl)-4-fluoro-1-(oxetan-2-ylmethyl)-1H-benzo[d]imidazole-6-carboxylic acid] reads 10.10.

As to `CC1(C)COCC1n1c(Cc2cc(F)c(-c3cccc(OCc4ncc(C(F)(F)F)s4)n3)cc2F)nc2c(F)cc(C(=O)O)cc21` (stereo not drawn) [Example 437, 2-(2,5-difluoro-4-(6-((5-(trifluoromethyl)thiazol-2-yl)methoxy)pyridin-2-yl)benzyl)-1-(4,4-dimethyltetrahydrofuran-3-yl)-4-fluoro-1H-benzo[d]imidazole-6-carboxylic acid], the pEC50 is 9.98. The result for `O=C(O)c1ccc2nc(Cc3cc(F)c(-c4cccc(OCc5cc6n(n5)CCCC6)n4)cc3F)n(C[C@@H]3CCO3)c2c1` [Example 70, (S)-2-(2,5-difluoro-4-(6-((4,5,6,7-tetrahydropyrazolo[1,5-a]pyridin-2-yl)methoxy)pyridin-2-yl)benzyl)-1-(oxetan-2-ylmethyl)-1H-benzo[d]imidazole-6-carboxylic acid] reads 8.71.

Consider `N#CC1(NC(=O)c2cc(Cl)c(COc3cccc(-c4cc(F)c(Cc5nc6ccc(C(=O)O)cc6n5C[C@@H]5CCO5)cc4F)n3)cn2)CC1` [Example 184, (S)-2-(4-(6-((4-chloro-6-((1-cyanocyclopropyl)carbamoyl)pyridin-3-yl)methoxy)pyridin-2-yl)-2,5-difluorobenzyl)-1-(oxetan-2-ylmethyl)-1H-benzo[d]imidazole-6-carboxylic acid], for which the pEC50 was 9.92.

`Cn1nc(COc2cccc(-c3cc(F)c(Cc4nc5ccc(C(=O)O)cc5n4C[C@@H]4CCO4)cc3F)n2)cc1C(N)=O` [Example 206, (S)-2-(4-(6-((5-carbamoyl-1-methyl-1H-pyrazol-3-yl)methoxy)pyridin-2-yl)-2,5-difluorobenzyl)-1-(oxetan-2-ylmethyl)-1H-benzo[d]imidazole-6-carboxylic acid]: the pEC50 was 7.36. `O=C(O)c1ccc2nc(Cc3cc(F)c(-c4cccc(OCc5ccn(CC(F)F)n5)n4)cc3F)n(C[C@@H]3CCO3)c2c1` [Example 64, (S)-2-(4-(6-((1-(2,2-difluoroethyl)-1H-pyrazol-3-yl)methoxy)pyridin-2-yl)-2,5-difluorobenzyl)-1-(oxetan-2-ylmethyl)-1H-benzo[d]imidazole-6-carboxylic acid] had a pEC50 of 8.20. The compound `COCCn1c(Cc2cc(F)c(-c3cccc(OCc4ccc(C(N)=O)nc4)n3)cc2F)nc2ccc(C(=O)O)cc21` [Example 174, 2-(4-(6-((6-carbamoylpyridin-3-yl)methoxy)pyridin-2-yl)-2,5-difluorobenzyl)-1-(2-methoxyethyl)-1H-benzo[d]imidazole-6-carboxylic acid] gave a pEC50 of 7.39.

With “2-(4-(6-((5-chlorothiazol-2-yl)methoxy)pyridin-2-yl)-2,5-difluorobenzyl)-1-((1-(fluoromethyl)cyclopropyl)methyl)-1H-benzo[d]imidazole-6-carboxylic acid [Example 269]”, the pEC50 was 9.13. Then `CC1(C)COC[C@H]1n1c(Cc2cc(F)c(-c3ccc(F)c(OCc4ncc(C(F)F)s4)n3)cc2F)nc2ccc(C(=O)O)cc21` [Example 416, (S)-2-(4-(6-((5-(difluoromethyl)thiazol-2-yl)methoxy)-5-fluoropyridin-2-yl)-2,5-difluorobenzyl)-1-(4,4-dimethyltetrahydrofuran-3-yl)-1H-benzo[d]imidazole-6-carboxylic acid], with 9.47; and `Cn1cncc1C#Cc1ccc(COc2cccc(-c3cc(F)c(Cc4nc5c(F)cc(C(=O)O)cc5n4C[C@@H]4CCO4)cc3F)n2)c(F)c1` [Example 395, (S)-2-(2,5-difluoro-4-(6-((2-fluoro-4-((1-methyl-1H-imidazol-5-yl)ethynyl)benzyl)oxy)pyridin-2-yl)benzyl)-4-fluoro-1-(oxetan-2-ylmethyl)-1H-benzo[d]imidazole-6-carboxylic acid], with 9.71. Then `Cn1cc(C#Cc2cnc(COc3cccc(-c4cc(F)c(Cc5nc6c(F)cc(C(=O)O)cc6n5C[C@@H]5CCO5)cc4F)n3)s2)cn1` [Example 111, 2-[[2,5-difluoro-4-[6-[[5-[2-(1-methylpyrazol-4-yl)ethynyl]thiazol-2-yl]methoxy]-2-pyridyl]phenyl]methyl]-7-fluoro-3-[[(2S)-oxetan-2-yl]methyl]benzimidazole-5-carboxylic acid], with 10.30; and `O=C(O)c1ccc2nc(Cc3cc(F)c(-c4cccc(OCc5ncc(-c6cccnc6)s5)n4)cc3F)n(C[C@@H]3CCO3)c2c1` [Example 108, (S)-2-(2,5-difluoro-4-(6-((5-(pyridin-3-yl)thiazol-2-yl)methoxy)pyridin-2-yl)benzyl)-1-(oxetan-2-ylmethyl)-1H-benzo[d]imidazole-6-carboxylic acid], with 9.74. Then `N#CC1(NC(=O)c2cc(Cl)c(COc3cccc(-c4cc(F)c(Cc5nc6c(F)cc(C(=O)O)cc6n5C[C@@H]5CCO5)cc4F)n3)cn2)COC1` [Example 188, (S)-2-(4-(6-((4-chloro-6-((3-cyanooxetan-3-yl)carbamoyl)pyridin-3-yl)methoxy)pyridin-2-yl)-2,5-difluorobenzyl)-4-fluoro-1-(oxetan-2-ylmethyl)-1H-benzo[d]imidazole-6-carboxylic acid], with 10.30.

Usually pEC50 stands for the EC50 on a negative log10 scale, so that one unit is a factor of ten. The low end stands for a large EC50, the high end for a small EC50.
